Assays:
Schistosoma mansoni [1] = assay: Schistosomicidal activity in infected mice; assay type: in vivo; details: for Schistosomicidal activity in %: Mouse
Experimental: (§1) Mice and golden hamsters are infected subcutaneously with 60 cercaria of Schistosoma mansoni. About 42 days after the infection, they are treated orally with a single dosage of the preparation to be tested. 5 animals are used per preparation and dosage. 10 untreated animals are used as controls. The animals are killed and dissected 2 weeks (hamster) or 3 weeks (mice) after the treatment. Worm pairs in mesenteric veins, portal vein and liver are dissected-out, counted and the condition of the worms (living or dead) are registered. A schistosomicidal activity of a preparation manifests itself in the appearance of dead worms in the vessels of the liver. Dead worms are never found in untreated control animals. The test is evaluated by calculating the percentage of dead worm pairs in the liver of infected, treated animals.

Schistosoma mansoni [2] = assay: Schistosomicidal activity in infected golden hamsters; assay type: in vivo; details: Hamster
Experimental: as §1

Schistosoma mansoni [3] = assay: In vitro schistosomicidal activity (motility of worm pairs); assay type: cell-based; parameters: key to Activity: worm pairs motionless within 15 minutes; b: worm pairs show normal motility during the test period of 120 hours; details: for Activity: 37° C., 120 hours
Experimental: In order to test the in vitro activity of preparations, worm pairs of Schistosoma mansoni are isolated from mice and incubated at 37° C. in a nutrient medium. Preparations are added in the form of a solution or as a suspension. The motility of the worms is observed under a microscope and registered during the test period of 120 hours. A schistosomicidal activity of a preparation manifests itself in the more or less rapid loss of motility of the worms. Control worms in the nutrient medium without the addition of a preparation maintain their normal motility during the entire test period of 120 hours.

[4] = biological target: central benzodiazepine receptors (cerebral cortex); assay: Inhibition of binding of tritiated diazepam at the specific benzodiazepine receptors in the cerebral cortex
Experimental: The affinity of compounds of formula I to the central benzodiazepine receptors was determined according to the method described in Life Science 20, 2101-2110 (1977) and Science 198, 849-851 (1977). According to this method, the inhibition of the binding of tritiated diazepam at the specific benzodiazepine receptors in the cerebral cortex by the respective test substances is ascertained. The IC50 ("50% inhibiting concentration") is that concentration of the respective test substance which brings about a 50 percent inhibition of the specific binding of the tritiated diazepam at the specific benzodiazepine receptors in the cerebral cortex.

[5] = test system: diazepam effect in the pentetrazole test; assay: Antagonism of diazepam in the pentetrazole test; assay type: in vivo, mice; details: for ED50: Mus musculus, po, 0.25 h, mice, diazepam 5 mg/kg i.p. 1 hour before pentetrazole 120 mg/kg i.p., test compound p.o. 15 minutes before pentetrazole
Experimental: This property was used to evaluate the test described hereinafter which permits the determination of compounds which are capable of antagonizing the central properties of 1,4-benzodiazepines which have tranquillizing activity.
The antagonistic activity of the compounds investigated, i.e. their ability to counteract the activity of the diazepam in the pentetrazole test, is determined by counting the mice which suffer convulsive attacks in this test.
(§2) In the following Table there are presented the results which have been obtained with representative members of the class of compound defined by formula I in the test previously described. The ED50 is the amount of test compound in mg/kg (p.o.) which counteracts in 50% of the animals the diazepam effect in the above test. Moreover, the Table contains the IC50 value defined above for all test compounds listed therein as well as data concerning the acute toxicity of certain of these compounds (LD50 in mg/kg in the case of single oral administration to mice).

[6] = Acute toxicity, single oral administration to mice; details: mouse, in vivo
Excerpt: as §2

SMILES	IC50 [4] [nM]	ED50 [5] [mg/kg]	also measured
CC1N=C(c2ccccc2Cl)c2cc([N+](=O)[O-])ccc2NC1=O (single isomer, unassigned; (+)) [Compound S, (+)-5-(o-chlorophenyl)-1,3-dihydro-3-methyl-7-nitro-2H-1,4-benzodiazepin-2-one, reference compound]	–	–	Schistosomicidal activity in % (Schistosoma mansoni [1]; Compound S 75 mg/kg p.o. alone): 100%; Schistosomicidal activity in % (Schistosoma mansoni [2]; Compound S 75 mg/kg p.o. alone): 100%; Activity (Schistosoma mansoni [3]; Compound S 25 ug/ml alone): a (worm pairs motionless within 15 minutes)
CN1Cc2c(C(=O)OC(C)(C)C)ncn2-c2ccc(F)cc2C1=O [(a) F H --CH3 O, t-butyl 8-fluoro-5,6-dihydro-5-methyl-6-oxo-4H-imidazo[1,5-a][1,4]benzodiazepine-3-carboxylate]	1.4	8.4	–
CN1Cc2c(C(=O)OC(C)(C)C)ncn2-c2cccc(Br)c2C1=O [(a) H Br --CH3 O, t-butyl 7-bromo-5,6-dihydro-5-methyl-6-oxo-4H-imidazo[1,5-a][1,4]benzodiazepine-3-carboxylate]	2.3	0.13	–
CN1Cc2c(C(=O)OC(C)(C)C)ncn2-c2cccc(C#N)c2C1=O [(a) H CN --CH3 O, t-butyl 7-cyano-5,6-dihydro-5-methyl-6-oxo-4H-imidazo[1,5-a][1,4]benzodiazepine-3-carboxylate]	10	1.22	–
CN1Cc2c(C(=O)OC(C)(C)C)ncn2-c2cccc(Cl)c2C1=O [(a) H Cl --CH3 O, t-butyl 7-chloro-5,6-dihydro-5-methyl-6-oxo-4H-imidazo[1,5-a][1,4]benzodiazepine-3-carboxylate]	3	0.2	LD50 [6]: 312 mg/kg; Schistosomicidal activity in % (Schistosoma mansoni [1]; Compound A 300 mg/kg p.o. alone): 0%; influence on schistosomicidal activity of compound S (Schistosoma mansoni [1]; animal tests (mice and hamsters)): not influenced detrimentally; Schistosomicidal activity in % (Schistosoma mansoni [2]; Compound A 225 mg/kg p.o. alone): 0%; Activity (Schistosoma mansoni [3]; Compound A 25 ug/ml alone): b; Activity (Schistosoma mansoni [3]; Compound A 100 ug/ml alone): b; influence on schistosomicidal activity of compound S (Schistosoma mansoni [3]; in vitro test): not influenced detrimentally
CN1Cc2c(C(=O)OC(C)(C)C)ncn2-c2ccccc2C1=O [(a) H H --CH3 O, t-butyl 5,6-dihydro-5-methyl-6-oxo-4H-imidazo[1,5-a][1,4]benzodiazepine-3-carboxylate]	3.3	4.7	LD50 [6]: 625 mg/kg
CN1Cc2c(C(=O)OC(C)(C)C)ncn2-c2ccccc2C1=S [(a) H H --CH3 S, t-butyl 5,6-dihydro-5-methyl-6-thioxo-4H-imidazo[1,5-a][1,4]benzodiazepine-3-carboxylate]	8.9	7.1	–
CN1Cc2c(C(=O)OC(C)(C)C)ncn2-c2cccc(I)c2C1=O [(a) H I --CH3 O, t-butyl 5,6-dihydro-7-iodo-5-methyl-6-oxo-4H-imidazo[1,5-a][1,4]benzodiazepine-3-carboxylate]	2.6	0.14	–
CN1C(=O)CN=C(c2ccccc2)c2cc(Cl)ccc21 [diazepam, reference compound]	–	–	experimental animals protected from convulsive attacks in the pentetrazole test ([5]; diazepam 5 mg/kg i.p., more than 900 mice): protects all experimental animals from convulsive attacks
